Read-outs that look alike come from different tables or passages of the source.
Legend:
Drosophila OR71a = molecular target: T1, Drosophila OR71a (Drosophila melanogaster, UniProt Q9VUK5); test: Calcium ion fluorescence (GCaMP6) assay, OR71a stable HEK293 cell line; assay type: cell-based; settings: for activation at 1 µM / activation at 10 µM / activation at 100 µM: HEK293, read-out: OR71a response (VUAA1-normalized response); for Average response: OR71a cell line, VUAA1-normalized response, mean of biological replicates; for DF norm AVERAGE OR71a: normalized fluorescence change, values below 0.05 threshold given as 0
T1 construct: expressed in transfected cells
T1 sequence (Q9VUK5 1-378): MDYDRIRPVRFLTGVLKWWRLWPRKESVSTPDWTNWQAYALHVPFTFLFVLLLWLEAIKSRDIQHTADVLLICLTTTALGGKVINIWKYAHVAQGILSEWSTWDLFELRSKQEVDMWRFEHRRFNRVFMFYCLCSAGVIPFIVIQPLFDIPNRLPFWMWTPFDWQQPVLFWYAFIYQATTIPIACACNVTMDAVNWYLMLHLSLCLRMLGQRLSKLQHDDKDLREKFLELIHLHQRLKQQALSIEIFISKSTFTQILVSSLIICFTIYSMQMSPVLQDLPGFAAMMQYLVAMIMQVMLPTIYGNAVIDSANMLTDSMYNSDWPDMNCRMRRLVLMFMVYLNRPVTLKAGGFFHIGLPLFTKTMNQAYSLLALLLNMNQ
T1 sequence (Q9VNB5 1-486 partner): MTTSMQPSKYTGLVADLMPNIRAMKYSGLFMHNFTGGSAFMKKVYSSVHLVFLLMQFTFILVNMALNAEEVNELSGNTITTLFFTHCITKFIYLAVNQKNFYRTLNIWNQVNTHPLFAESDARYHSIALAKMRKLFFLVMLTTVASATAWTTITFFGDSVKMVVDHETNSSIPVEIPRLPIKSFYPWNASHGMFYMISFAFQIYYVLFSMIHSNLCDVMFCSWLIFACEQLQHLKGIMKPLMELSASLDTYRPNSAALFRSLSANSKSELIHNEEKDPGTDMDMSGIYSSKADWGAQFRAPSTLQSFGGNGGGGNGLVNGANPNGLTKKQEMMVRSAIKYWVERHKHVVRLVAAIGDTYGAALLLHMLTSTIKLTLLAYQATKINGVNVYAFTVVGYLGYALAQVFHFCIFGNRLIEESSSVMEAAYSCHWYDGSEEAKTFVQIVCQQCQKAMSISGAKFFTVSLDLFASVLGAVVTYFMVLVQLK
Procedure: These VUAA1 normalized ∆F values were used to compare the different receptors and ligands.
The concentration-dependent effect of the reference ligands on their cognate cell lines was examined in more detail. Twelve different ligand concentrations were measured on each cell line in an overall 0.01 μM to 100 μM concentration range with 5 repetitions with three technical replicates each time.
Twelve thousand to 18,000 cells were plated into each well of a black wall, transparent bottom 384-well microplate (Greiner) 48 h or 72 h before the measurements and were simultaneously treated with 1 μg/mL doxycycline. […] The plate has 24 columns, thus we could record responses in up to eight different cell lines in each plate. On the day of the experiment, the growth medium was replaced with 20 µL assay buffer/well (140 mM NaCl, 5 mM KCl, 2 mM CaCl2, 1 mM MgCl2, 5 mM HEPES-Na, 20 mM glucose, pH 7.3, 340 mOsm). […] Baseline fluorescence (F0) was recorded for 5 s, after which 7 µL VOC buffer (140 mM NaCl, 5 mM KCl, 2 mM CaCl2, 1 mM MgCl2, 5 mM HEPES-Na, 31 mM glucose, 0.1% DMSO, pH 7.3, 340 mOsm) was injected into each well in one row and the fluorescence response was recorded for an additional 30 s, at a rate of one read/sec. VOC solutions (VOC buffer with 4× concentration of the final measured VOC concentration, 9 µL/well was injected) were measured on the same wells in a second round with the same protocol. Each individual concentration of a specific VOC sample was recorded in three wells for the same cell line on the same microplate. The raw data were exported in xls file format, F0 and FMAX values, and the fluorescence intensity changes (∆F) were calculated in Excel (Microsoft) (Supplementary file Data summary.xlsx) using the following equation: ΔF=FMAX-F0/F0 (see also Fig. 1C). On each plate, we recorded the response of each cell line to 50 µM VUAA1. The average of these ∆F values of each cell line were used to calculate the VUAA1-normalized values for the rest of the plate, by dividing VOC response ∆F values by the average VUAA1 response ∆F value of the corresponding OR cell line. Each VOC-OR combination was measured three times as technical replicates. […] The average of these replicates were used as one ∆F and VUAA1-normalized ∆F in the following analysis.
In the next rows we tested the reference VOCs (or other VOCs known to activate the corresponding cell lines), in order to test if all cell lines are responsive. The remaining rows were used to test VOCs with unknown effect.
The recorded FMAX, F0, ∆F, VUAA1-normalized ∆F values, as well as the OR name, the name of the tested sample, and the final concentration for each well were copied into supplementary file Data summary.xlsx, that was used to summarize all the plates recorded. Here, the averages of the measurements were calculated for each receptor-VOC-concentration combination.

Drosophila OR47a = molecular target: T2, Drosophila OR47a (Drosophila melanogaster, UniProt P81921); test: Calcium ion fluorescence (GCaMP6) assay, OR47a stable HEK293 cell line; assay type: cell-based; settings: for Average response: OR47a cell line, mean of biological replicates; for DF norm AVERAGE OR47a: normalized fluorescence change, values below 0.05 threshold given as 0
T2 construct: expressed in transfected cells
T2 sequence (P81921 1-385): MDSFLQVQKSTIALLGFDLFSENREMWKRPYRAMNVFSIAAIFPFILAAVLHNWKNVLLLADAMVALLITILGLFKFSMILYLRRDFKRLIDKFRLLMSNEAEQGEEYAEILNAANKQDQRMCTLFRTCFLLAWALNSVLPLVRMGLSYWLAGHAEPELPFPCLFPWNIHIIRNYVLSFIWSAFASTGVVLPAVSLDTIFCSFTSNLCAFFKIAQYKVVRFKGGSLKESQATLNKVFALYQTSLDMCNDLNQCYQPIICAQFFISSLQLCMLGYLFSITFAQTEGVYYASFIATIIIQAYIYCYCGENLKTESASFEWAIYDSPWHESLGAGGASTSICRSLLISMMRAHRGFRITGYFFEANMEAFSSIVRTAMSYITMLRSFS
T2 sequence (Q9VNB5 1-486 partner): T1 sequence (Q9VNB5 1-486 partner)
In short: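 HEK293 lines stably expressing each Drosophila OR with GCaMP6, doxycycline-induced (1 μg/mL) 48 or 72 h. Fluorescence recorded 5 s baseline then 30 s after VOC injection at pH 7.3; ΔF=(FMAX−F0)/F0, normalized to 50 µM VUAA1 response per line, triplicate wells averaged; concentration series 0.01–100 μM.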

[1] = HEK293, read-out: OR47a response (VUAA1-normalized response)
[2] = HEK293, read-out: OR47a Average response (VUAA1-normalized)

| SMILES | activation at 1 µM (Drosophila OR71a) [%] | activation at 10 µM (Drosophila OR71a) [%] | activation at 100 µM (Drosophila OR71a) [%] | Average response (Drosophila OR71a; cc. 1 µM) | Average response (Drosophila OR71a; cc. 10 µM) | Average response (Drosophila OR71a; cc. 100 µM) | DF norm AVERAGE OR71a (Drosophila OR71a; concentration 1) | DF norm AVERAGE OR71a (Drosophila OR71a; concentration 10) | DF norm AVERAGE OR71a (Drosophila OR71a; concentration 100) | activation at 1 µM (Drosophila OR47a; [1]) [%] | activation at 10 µM (Drosophila OR47a; [1]) [%] | activation at 100 µM (Drosophila OR47a; [1]) [%] | Average response (Drosophila OR47a; odorant cc. 1 µM) | Average response (Drosophila OR47a; odorant cc. 10 µM) | Average response (Drosophila OR47a; odorant cc. 100 µM) | DF norm AVERAGE OR47a (Drosophila OR47a; concentration 1) | DF norm AVERAGE OR47a (Drosophila OR47a; concentration 10) | DF norm AVERAGE OR47a (Drosophila OR47a; concentration 100) | further results |
| --- | --- | --- | --- | --- | --- | --- | --- | --- | --- | --- | --- | --- | --- | --- | --- | --- | --- | --- | --- |
| CCCCCC(O)CC (stereo not drawn) [3-octanol] | 0 | 0 | 0 | 0.0215 | 0.00 | 0.00 | 0 | 0 | 0 | 0 | 0 | 9 | 0.00 | 0.00 | 0.09 | 0 | 0 | 0.08889 | – |
| CCCCCC(=O)CC [3-octanone] | 0 | 0 | 0 | 0.00 | 0.00 | 0.00 | 0 | 0 | 0 | 7.45 | 16 | 73 | 0.0745 | 0.16 | 0.73 | 0.07449 | 0.1581 | 0.7333 | activation at 1 µM (Drosophila OR47a; [2]): 7%; activation at 10 µM (Drosophila OR47a; [2]): 16%; activation at 100 µM (Drosophila OR47a; [2]): 73% |
| Cc1ccc(O)cc1 [4-methylphenol] | 0 | 0 | 0 | 0.00 | 0.00 | 0.00 | 0 | 0 | 0 | 10 | 0 | 5.42 | 0.10 | 0.0217 | 0.0542 | 0.1 | 0 | 0.05422 | – |
| C=CC(O)C/C=C\CC (stereo not drawn) [(5Z)-octa-1,5-dien-3-ol] | 0 | 0 | 0 | 0.00 | 0.0228 | 0.00 | 0 | 0 | 0 | 0 | 0 | 0 | 0.00 | 0.00 | 0.00 | 0 | 0 | 0 | – |
| C=C1[C@H]2CC[C@@H]3[C@H]2C(C)(C)CCC[C@]13C [(+)-longifolene] | – | – | – | 0.00 | 0.03 | 0.0431 | 0 | 0 | 0 | – | – | – | 0.00 | 0.00 | 0.0238 | 0 | 0 | 0 | OR71a response (VUAA1-normalized response) (Drosophila OR71a; VOC concentration 1 μM): 0.00; OR71a response (VUAA1-normalized response) (Drosophila OR71a; VOC concentration 10 μM): 0.00; OR71a response (VUAA1-normalized response) (Drosophila OR71a; VOC concentration 100 μM): 0.00; OR47a response (VUAA1-normalized response) (Drosophila OR47a; VOC concentration 1 μM): 0.00; OR47a response (VUAA1-normalized response) (Drosophila OR47a; VOC concentration 10 μM): 0.00; OR47a response (VUAA1-normalized response) (Drosophila OR47a; VOC concentration 100 μM): 0.00 |
| C=C1CC[C@H]2O[C@]2(C)CC[C@@H]2[C@@H]1CC2(C)C [(-)-caryophyllene oxide] | 0 | 0 | 7.44 | 0.00 | 0.00 | 0.0744 | 0 | 0 | 0.07441 | 0 | 0 | 0 | 0.00 | 0.00 | 0.00 | 0 | 0 | 0 | – |
